Here are results for one molecule from patent US11267815B2, “Class of amino-substituted nitrogen-containing fused ring compounds, preparation method therefor, and use thereof” (SHANGHAI RINGENE BIOPHARMA CO., LTD., priority 2017, dated 2022).

Series [1] in a line: Pharmacokinetics in rats or mice after intragastric and intravenous administration. It counts as in vivo, SD rats or BALB/c mice. Particulars: iv 3 mg/kg, intragastric 10 mg/kg. On the procedure:
(3) LC/MS/MS method was used to measure the drug concentration in plasma at different time points after the embodiment compounds were administered to the rats or mice by intragastric administration and intravenous injection respectively, so as to study the pharmacokinetic behavior of the compounds of the present disclosure in rats or mice and evaluate the pharmacokinetic characteristics thereof. […]

The next series deals with xenograft tumors. Kind of series: Xenograft tumor growth in nude mice. It counts as in vivo. The settings on record: oral, daily for three weeks, lower dose (even less than 20 mg/kg). How it is done: 1. The tumor tissue in vigorous growth period was cut into about 1.5 mm^3, and subcutaneously inoculated into the right armpit of nude mice under sterile condition. The diameter of the subcutaneous transplanted tumors in nude mice was measured with vernier caliper, and the animals were randomly divided into groups when the average volume of the tumor reached about 130 mm^3. The embodiment compounds (prepared to the desired concentration with water for injection containing 1% Tween 80 for later use) were orally administered at a predetermined dose every day for three weeks, while a same amount of menstruum was administered in the menstruum control group. During the whole experiment, the diameter of the xenograft tumor was measured twice a week and the weight of the mice was weighed at the same time. The tumor volume (TV) was calculated by the formula: TV=½×a×b^2, where a and b represent length and width respectively. According to the measured results, the relative tumor volume (RTV) was calculated by the formula: RTV=Vt/V0, where V0 was the tumor volume measured when the mice were divided into cages for administration (i.e., d0) and Vt was the tumor volume at each measurement. […]

The test system of the next series is Hep3B cells. Kind of series: Hep3B cell proliferation (CellTiter-Glo, 72 hours). The settings on record: Homo sapiens, Hep3B. It counts as cell-based. How it is done: 1. Test method: inoculating Hep3B cells (ATCC) in logarithmic growth phase at an appropriate density in a 96-well culture plate, with 100 μL per well. After overnight culture, different concentrations of compounds were added to stay for 72 hours, and menstruum control group (negative control) was set, and the incubation was performed under the condition of 5% CO2 at 37° C. Adding 10 mM compound stock solution to the cells, after the cells were incubated with the compounds for 72 hours, the effects of the compounds on cell proliferation were determined by CellTiter-Glo (Promega) method. 30 μL CTG reagent was added to each well and the resulting mixtures were placed in a 37° C. incubator for 2-4 hours. Then the plate was read by a full-wavelength microplate enzyme reader Envision at a […].
The inhibition rates (%) of the compounds on tumor cell growth were calculated by the following formula: inhibition rate (%)=(OD negative control well−OD administration well)/OD negative control well×100%. IC50 values were obtained by four parameters regression using Graphpad Prism 5 software.

The nature of series [2]: ADME tests: liver microsome metabolic stability and direct inhibition test. Format: in vitro ADME. Particulars: metabolic stability, direct inhibition test. On the procedure:
(1) Metabolic stability test: 150 μL system of liver microsome (final concentration 0.5 mg/mL) was used for metabolic stability incubation, the system contained NADPH (final concentration 1 mM), 1 μM test compound and positive control Midazolam or negative control Atenolol, then the reaction was terminated with Tinidazole-containing acetonitrile at 0 min, 5 min, 10 min and 30 min respectively, and the mixtures were vortexed for 10 minutes and centrifuged for 10 minutes at 15000 rmp, 50 μL of the supernatants were added into 96-well plate for injection. The metabolic stability of the compounds was calculated by measuring the relative reduction of the original drug.
(2) Direct inhibition test (DI test): Direct inhibition incubation was carried out with 100 μL system of human liver microsome (final concentration 0.2 mg/mL), the system containing NADPH (final concentration 1 mM), 10 μM compound, positive inhibitor cocktail (Ketoconazole 10 μM, Quinidine 10 μM, Sulfaphenazolum 100 μM, α-Naphthoflavone 10 μM, Tranylcypromine 1000 μM), negative control (BPS containing 0.1% DMSO) and mixed probe substrates (Midazolam 10 μM, Testosterone 100 μM, Dextromethorphan […], Diclofenac 20 μM, Phenacetin 100 μM, Mephenytoin 100 μM) was incubated for 20 minutes and then the reaction was terminated. The relative activity of enzymes was calculated by measuring the relative production of metabolites.

Series [3] has as its system various tumor cells (HuH-7, SNU-16, KG1, UM-UC-14, RT-112 etc.). Kind of series: Proliferation inhibitory activity on various tumor cells (SRB or CCK8). It counts as cell-based. The settings on record: SRB or CCK8 method; read-out: proliferation inhibitory activities on various tumor cells. A general note: Tetrazolium assays rely on reduction of a dye to a coloured formazan, in cell work by metabolically active cells.

Like-named read-outs stand apart in the source and are kept apart here.

For the molecule `C=CC(=O)N1CCN(CCCc2cn3c(n2)c(-c2c(Cl)c(OC)cc(OC)c2Cl)cc2cnc(NC)nc23)CC1` [Embodiment 3, 1-(4-(3-(6-(2,6-dichloro-3,5-dimethoxyaniline)-2-(methylamine)imidazo[1′,2′:1,6]pyrido[2,3-d]pyrimidin-8-yl)propyl)piperazine-1-yl)prop-2-en-1-one], the “absorption and metabolism properties in rats and mice” value in series [1] is “good absorption and metabolism properties in rats and mice”. The anti-tumor rate result in the series on xenograft tumors is “more than 80%”. Besides, the IC50 was under 20 nM in the series on Hep3B cells (read-out: Hep3B IC50), under 10 nM in the series with Hep3B cells (read-out: Hep3B cells inhibitory activity IC50) and under 100 nM in series [3]. In addition, the ADME properties result in series [2] is recorded as “better ADME properties”.
